Converted amounts (≈) assume the structure as drawn. Where two headings read alike, the source gives them in different places.
Key:
Format in all cases: cell-based
[1] = system: Pseudomonas aeruginosa; assay: MIC of antibiotics by microdilution in liquid medium on plates (Example 18); settings: Pseudomonas aeruginosa, read-out: MIC (average MIC value)
Procedure: The unicellular living organism chosen for the trials is Pseudomonas aeruginosa (wild-type strain originating from hospital sources).
The same methodology as for Examples 11 and 12 was follows. Bacteriostatic analyses were performed with a number of antibiotics belonging to benzylpenicillins, and aminopenicillins, and first and second generation cephalosporins, namely:
The determination of the MIC was carried out by the microdilution method in liquid medium on plates. Aqueous solutions of each antibiotic are prepared in MUELLER HINION broth, to obtain dilutions in a geometric ratio of 2. The solvent is sterile double-distilled water.
The preparation of the bacterial inoculum is made with a culture of Pseudomonas aeruginosa, with agitation on a water bath at 37° C. for 4 to 6 hours, giving 10^6 bacteria/ml.
Three trials were performed per antibiotic and per bacterial inoculum. The trials were performed first with the antibiotics alone (trials a).sctn., and then with the addition of a dose of 1 mg/l of an aqueous solution of lithium fluoride (trials b).sctn. to the dilution of each one in every cup of every plate.

[2] = system: Klebsiella pneumonia; assay: Phenotype of resistant wild-type hospital strains with activated antibiotics (Example 35); settings: Fli 4 ppm
Procedure: Strains Gram+ and Gram- (wild-type hospital) having a resistant phenotype vis a vis standard firstly and secondly used antibiotherapy were experimented on activated antibiotics.
250 experiments were conducted on the following strains: Streptococcus group B, C, D, F, G, Staphylococcus aureus, Staphylococcus epidermitis, Klebsiella pneumoniae, Klebsiella spirochete, Klebsiella oxytoca, Proteus mirabilis, Serratia marcescens, Escherichia coli, Citrobacter freundii, Enterobacter cloacae, Enterobacter calcoaceticus, Salmonella spirochete, Salmonella typhimurium, Pseudomonas aeruginosa, Haemophilus influenzae, Haemophilus sphrophilus, Acinetobacter calcoaeticus. […]

[3] = system: Serratia; assay: Concentrations of cefotaxime inhibiting 50% of the strains
Procedure: (§1) The activity of CEFOTAXIME was tested, alone and then in the presence of lithium fluoride, with respect to pathogenic strains other than Pseudomonas aeruginosa.
(§2) The following table expresses the concentrations (mg/l) of cefotaxime inhibiting 50% of the strains.

[4] = system: Escherichia coli; assay: as above
Procedure: as §1, §2

[5] = system: Enterobacter; assay: as above
Procedure: as §1, §2

[6] = system: Proteus morganii; assay: as above; settings: Morganella morganii; alone; F20; read-out: 50% inhibitory concentration
Procedure: as §1, §2

[7] = system: Klebsiella; assay: as above
Procedure: as §1, §2

[8] = + LiF 1 mg/l, strain lic R βLac^+ OXA
[9] = + LiF 1 mg/l, strain lic R βLac^+ PSE
[10] = + LiF 1 mg/l, strain lic R βLac^+ TEM
[11] = + LiF 1 mg/l, strain lic R βLac^+ cephalosporinase
[12] = + LiF 1 mg/l, strain lic S βLac^- (first column)
[13] = + LiF 1 mg/l, strain lic S βLac^- (second column)
[14] = alone, strain lic R βLac^+ cephalosporinase
[15] = alone, strain lic S βLac^- (first column)
[16] = alone, strain lic S βLac^- (second column)

Row | SMILES | MIC [1, 8] | MIC [1, 9] | MIC [1, 10] | MIC [1, 11] | MIC [1, 12] | MIC [1, 13] | MIC ([1]; alone, strain lic R βLac^+ OXA) | MIC ([1]; alone, strain lic R βLac^+ PSE) | MIC ([1]; alone, strain lic R βLac^+ TEM) | MIC [1, 14] | MIC [1, 15] | MIC [1, 16] | also measured
1 | CCN1CCN(C(=O)N[C@@H](C(=O)N[C@@H]2C(=O)N3C(C(=O)O)=C(CSc4nnnn4C)CS[C@H]23)c2ccc(O)cc2)C(=O)C1=O [CEFOPERAZONE, cefoperazone] | 64 mg/L | 32 mg/L | 32 mg/L | 64 mg/L | 4 mg/L | 16 mg/L | 64 mg/L | 64 mg/L | 32 mg/L | 64 mg/L | 8 mg/L | 16 mg/L | phenotype in presence of Fli [2]: the resistant phenotype was not changed
2 | CO/N=C(\C(=O)N[C@@H]1C(=O)N2C(C(=O)O)=C(COC(C)=O)CS[C@H]12)c1csc(N)n1 [CEFOTAXIME, cefotaxime] | 16 mg/L | 16 mg/L | 32 mg/L | 256 mg/L | 8 mg/L | 16 mg/L | 32 mg/L | 32 mg/L | 32 mg/L | 256 mg/L | 16 mg/L | 32 mg/L | IC50 ([3]; alone, 1123, read-out: 50% inhibitory concentration): 0.076 mg/L (≈ 0.167 µM); IC50 ([3]; alone, MO1117, read-out: 50% inhibitory concentration): 0.3 mg/L (≈ 0.659 µM); IC50 ([3]; in the presence of LiF at 1 mg/l, 1123, read-out: 50% inhibitory concentration): 0.076 mg/L; IC50 ([3]; in the presence of LiF at 1 mg/l, MO1117, read-out: 50% inhibitory concentration): 0.3 mg/L; IC50 ([4]; alone, K12 J53, read-out: 50% inhibitory concentration): 0.023 mg/L (≈ 0.0505 µM); IC50 ([4]; alone, K12 PIP 55, read-out: 50% inhibitory concentration): 0.023 mg/L (≈ 0.0505 µM); IC50 ([4]; alone, K12 PIP 111, read-out: 50% inhibitory concentration): 0.023 mg/L (≈ 0.0505 µM); IC50 ([4]; alone, SOL, read-out: 50% inhibitory concentration): 0.18 mg/L (≈ 0.395 µM); IC50 ([4]; in the presence of LiF at 1 mg/l, K12 J53, read-out: 50% inhibitory concentration): 0.01 mg/L; IC50 ([4]; in the presence of LiF at 1 mg/l, K12 PIP 55, read-out: 50% inhibitory concentration): 0.023 mg/L; IC50 ([4]; in the presence of LiF at 1 mg/l, K12 PIP 111, read-out: 50% inhibitory concentration): 0.023 mg/L; IC50 ([5]; alone, P49, read-out: 50% inhibitory concentration): 27.2 mg/L (≈ 59.7 µM); IC50 ([5]; alone, T45, read-out: 50% inhibitory concentration): 0.05 mg/L (≈ 0.11 µM); IC50 ([5]; in the presence of LiF at 1 mg/l, P49, read-out: 50% inhibitory concentration): 23.2 mg/L; IC50 ([5]; in the presence of LiF at 1 mg/l, T45, read-out: 50% inhibitory concentration): 0.023 mg/L; IC50 [6]: 0.01 mg/L (≈ 0.022 µM); IC50 ([7]; alone, 1103, read-out: 50% inhibitory concentration): 0.023 mg/L (≈ 0.0505 µM); IC50 ([7]; alone, U28, read-out: 50% inhibitory concentration): 0.28 mg/L (≈ 0.615 µM); IC50 ([7]; in the presence of LiF at 1 mg/l, 1103, read-out: 50% inhibitory concentration): 0.01 mg/L; IC50 ([7]; in the presence of LiF at 1 mg/l, U28, read-out: 50% inhibitory concentration): 0.16 mg/L

Source: patent US5800838A, “Composition that inhibits or destroys at least one unicellular living organism containing fluorine F- and Lithium li+” (priority 1987, dated 1998)
